Reference: patent US20220354119A1, “COMPOSITION OF A RHEOLOGY MODIFIER AND DIHALOHYDANTOIN” (Rohm and Haas Company, priority 2019, published 2022)
“Also recorded” adds a separate entry of the source. Structures can show the parent of a compound that is named as a salt.

Tested on: not listed separately
Test: Heat age stability of HEUR-biocide formulation (appearance after heat aging)
Type: physicochemical
Conditions: biocide admixed with HEUR rheology modifier (RM-2020E or RM-8W); oven 50° C. for 2 weeks
Experimental: A number of biocides were admixed with ACRYSOL™ RM-2020E Rheology Modifier (RM-2020E, A Trademark of The Dow Chemical Company or Its Affiliates) and ACRYSOL™ RM-8W (RM-8W). In addition to testing biocides admixed with RM-2020E or RM-8W as-delivered, acid was also added to the rheology modifiers to lower the pH to approximately 4.5. Samples prepared with the biocide didecyldimethylammonium chloride were only tested when RM-2020E and RM-8W were prepared with 10-15% surfactant in the composition. The compositions were heat-aged in an oven maintained at 50° C. for 2 weeks. Heating aging was also carried out for RM-2020E in the absence of any biocide. If the composition failed the heat aging test, it was not tested for efficacy.
All heat aged samples were compared against a reference HEUR (RM-2020E or
The pass/fail criterion for biocide efficacy was determined by the formation of less than 1×10^4 colony forming units per mL (CFU/mL) of sample tested.

Molecule	Sample Appearance after Heat Age testing
CC1(C)C(=O)N(Cl)C(=O)N1Br [1-bromo-3-chloro-5,5-dimethylhydantoin]	non-degradative; also recorded: unchanged
C/C=C/C=C/C(=O)[O-].[K+] [Potassium sorbate]	Brown
[Na+].[O-]c1ccccc1-c1ccccc1 [Sodium o-phenylphenolate]	White
[Na+].[O-][n+]1ccccc1[S-] [Sodium pyrithione]	Bright yellow
CCCCCCCCCC[N+](C)(C)CCCCCCCCCC.[Cl-] [Didecyldimethylammonium chloride]	unchanged
Zinc pyrithione	White sediment
Oc1ccccc1-c1ccccc1 [o-phenylphenol]	White

Tested on: pool of 6 different Gram negative and Gram positive bacterial strains
Test: Bacterial challenge test (TAUNOVATE III High Throughput testing system, MPN)
Type: cell-based
Conditions: 300 ppm biocide in HEUR; 30° C., repeated challenges
Experimental: Efficacy of all biocides were determined as described for 1-bromo-3-chloro-5,5-dimethylhydantion. The only difference was the concentration of the biocide, which is shown as a range in Table 1.
1-Bromo-3-chloro-5,5-dimethylhydantoin (0.5% aqueous solution) was prepared by dispersing Chlorox Pool and Spa (0.25 g in 49.75 g water). Unpreserved RM-2020E thickeners were dosed with biocide and challenge tested with bacteria using the TAUNOVATE℠ III High Throughput testing system. In general, the tested biocides were calibrated for density and prepared at levels 10× higher than the target concentrations using a robotic system. For example, to target 15 ppm and 40 ppm concentrations of 1-bromo-3-chloro-5,5-dimethylhydantoin respectively, 150 ppm and 400 ppm concentrations of 1-bromo-3-chloro-5,5-dimethylhydantoin were prepared by the automated system. […]
The inoculum was prepared by making a 1:1 pool of overnight cultures of 6 different Gram negative and Gram positive bacterial strains, and then diluted 1:20 with tryptic soy broth. […] Three additional challenges were performed 7 d apart with fresh bacterial cultures and growth recovery was assessed 1 and 7 d after inoculation. […]
(TSB) with indicator. […] The MPN was calculated to determine the relative growth scale rating, which is a measure of the passing or failure of the sample for growth. […]

Molecule	Challenge Test
CCCCCCCCCCCCNC(=N)N [Dodecylguanidine Hydrochloride]	Fail (The pass/fail criterion for biocide efficacy was determined by the formation of less than 1×10^4 colony forming units per mL (CFU/mL) of sample tested)

Same assay, conditions: 400 ppm biocide in HEUR prepared with 10-15% surfactant; 30° C., repeated challenges

Molecule	Challenge Test
CCCCCCCCCC[N+](C)(C)CCCCCCCCCC.[Cl-] [Didecyldimethylammonium chloride]	Fail (The pass/fail criterion for biocide efficacy was determined by the formation of less than 1×10^4 colony forming units per mL (CFU/mL) of sample tested)
